# Tests used:
# [1] = Acute toxicity (LD50), ICR-JCL female mice, Litchfield-Wilcoxon graph method; conditions: mouse, in vivo, one dose, in olive oil, after 7 days
# Procedure: In the measurement of LD50, eight ICR-JCL female mice (5 week age) were used as one group to breed in a transparent polycage, and each drug was dissolved in olive oil and administrated by routes of intraperitoneal injection (i.p.), oral administration (p.o.) and subcutaneous injection (s.c.), to the mice at one dose and then, their value of LD50 by Litchfield-Wilcoxon graph method is obtained after 7 days.
# (§1) The tests (1), (2), (3) for various active ingredients were carried out.
# [2] = test system: human breast cancer cells having steroid hormone receptor; assay: Antitumor test (in vivo), human breast cancer cells implanted in BALB/C-nu/nu mice; conditions: tumors excised day 25
# Procedure: Pieces of human breast cancer cells having steroid hormone receptor was subcutaneously implanted under the arm of mice (BALB/C-nu/nu) (5 week age) to form solid tumors. After the solid tumors were established, each dispersion or solution of the active ingredient in olive oil was administered by oral dose or intraperitoneal injection each other day for 10 times or every days for 20 times. Twenty five days from the initial administration, the tumors were excised. Efficiency of inhibition of tumor proliferation was measured from (A) each average weight of excised tumors for 10 mice (the active ingredient was administrated) and (B) each average weight of excised tumors for 10 control mice. [formula]
# as §1
# [3] = test system: estrogen sensitive cells (uterus of rabbit); assay: Binding function to estrogen sensitive cells (3H-estradiol replacement, uterus of rabbit); conditions: 100 nM sample; smaller value = higher binding; 54-56% at 0 nM
# Procedure: Binding function of the active ingredients to estrogen sensitive cells.
# The binding function of the active ingredient to tumor cells was tested by the method described in Biochemical Experiment text Hormone (I) (Nippon Seikagaku) (Tokyo Kagakudojin page 217-252, April 25, 1977).
# Estradiol labelled by tritium (^3 H) was incubated with uterus of rabbit to bind it and then, the sample was added to the system to measure the amount of free ^3 H-estradiol which was replaced by the added estradiol. The results are shown as the binding ^3 H-estradiol(%) in the cases adding […] of the sample.
# [4] = test system: estrogen sensitive cells (uterus of rabbit); assay: as above; conditions: 10 nM sample; smaller value = higher binding; 54-56% at 0 nM
compound,measurement,setting,value
"COc1cccc2c1C(=O)c1c(O)c3c(c(O)c1C2=O)C[C@@](O)(C(=O)CO)C[C@@H]3O[C@H]1C[C@H](N)[C@H](O)[C@H](C)O1 [Test No. 13 (Table 18), 3-glycoloyl-1,2,3,4,6,11-hexahydro-3,5,12-trihydroxy-10-methoxy-6,11-dioxo-1-naphthacenyl-3'-amino-2',3',6'-trideoxy-α-L-lyxo-hexapyranoside, reference compound]",LD50 at 168 h,[1]; po,730 mg/kg
same,"Inhibitory effect of tumor, efficiency","[2]; i.p., 10 mg/kg",20%
same,"Inhibitory effect of tumor, efficiency","[2]; p.o., 10 mg/kg",20%
CO[C@H]1O[C@H](CO)[C@@H](O)[C@H](O)[C@H]1NC(=O)N(CCCl)N=O [compound 3],Binding 3H-estradiol,[3],55%
same,Binding 3H-estradiol,[4],55%
N[C@@H](Cc1ccc(N(CCCl)CCCl)cc1)C(=O)O [compound 21],LD50 at 168 h,[1]; ip,6.2 mg/kg
same,LD50 at 168 h,[1]; po,15.9 mg/kg
same,"Inhibitory effect of tumor, efficiency","[2]; i.p., 0.1 mg/kg",51%
same,"Inhibitory effect of tumor, efficiency","[2]; i.p., 0.5 mg/kg",57%
same,"Inhibitory effect of tumor, efficiency","[2]; p.o., 1 mg/kg",61%
same,"Inhibitory effect of tumor, efficiency","[2]; p.o., 3 mg/kg",72%
C[C@]12CC[C@@H]3c4ccc(OC(=O)c5ccccc5)cc4CC[C@H]3[C@@H]1CC[C@@H]2OC(=O)COCCNc1nc(N2CC2)nc(N2CC2)n1 [compound 20],LD50 at 168 h,[1]; ip,> 15 mg/kg
same,LD50 at 168 h,[1]; po,> 2000 mg/kg
same,"Inhibitory effect of tumor, efficiency","[2]; i.p., 0.1 mg/kg",74%
same,"Inhibitory effect of tumor, efficiency","[2]; p.o., 1 mg/kg",78%
same,"Inhibitory effect of tumor, efficiency","[2]; p.o., 5 mg/kg",87%
"O=NN(CCCl)C(=O)N[C@H]1C(O)O[C@H](CO)[C@@H](O)[C@@H]1O (stereo partly drawn) [Test No. 1 (Table 18), reference compound]",LD50 at 168 h,[1]; ip,48 mg/kg
same,LD50 at 168 h,[1]; po,210 mg/kg
same,"Inhibitory effect of tumor, efficiency","[2]; i.p., 3 mg/kg",18%
same,"Inhibitory effect of tumor, efficiency","[2]; i.p., 10 mg/kg",58%
same,"Inhibitory effect of tumor, efficiency","[2]; p.o., 10 mg/kg",13%
same,"Inhibitory effect of tumor, efficiency","[2]; p.o., 40 mg/kg",60%
"O=c1[nH]cc(F)c(=O)[nH]1 [Test No. 8 (Table 17), 5-fluoro-2,4-dioxo-pyrimidine, reference compound]",LD50 at 168 h,[1]; ip,242 mg/kg
same,LD50 at 168 h,[1]; po,900 mg/kg
same,"Inhibitory effect of tumor, efficiency","[2]; i.p., 10 mg/kg",30%
same,"Inhibitory effect of tumor, efficiency","[2]; i.p., 20 mg/kg",50%
same,"Inhibitory effect of tumor, efficiency","[2]; p.o., 15 mg/kg",30%
same,"Inhibitory effect of tumor, efficiency","[2]; p.o., 30 mg/kg",60%
"C[C@]12CC[C@@H]3c4ccc(OC(=O)c5ccccc5)cc4CC[C@H]3[C@@H]1CC[C@@H]2OC(=O)Cn1cc(F)c(=O)[nH]c1=O [Test No. 8 (Table 18), 3-benzoyloxy-1,3,5(10)-estratriene-17β-[5-fluoro-2,4-dioxo-pyrimidin-1-yl]acetate]",LD50 at 168 h,[1]; ip,680 mg/kg
same,LD50 at 168 h,[1]; po,> 3000 mg/kg
same,"Inhibitory effect of tumor, efficiency","[2]; i.p., 15 mg/kg",83%
same,"Inhibitory effect of tumor, efficiency","[2]; i.p., 30 mg/kg",90%
same,"Inhibitory effect of tumor, efficiency","[2]; p.o., 15 mg/kg",70%
same,"Inhibitory effect of tumor, efficiency","[2]; p.o., 30 mg/kg",81%
CCC(=O)Oc1ccc2c(c1)CC[C@@H]1[C@@H]2CC[C@]2(C)[C@@H](OC(=O)CN[C@H]3C[C@H](O[C@H]4C[C@](O)(C(=O)CO)Cc5c(O)c6c(c(O)c54)C(=O)c4c(OC)cccc4C6=O)O[C@@H](C)[C@H]3O)CC[C@@H]12 [compound 16],LD50 at 168 h,[1]; po,> 3000 mg/kg
same,"Inhibitory effect of tumor, efficiency","[2]; p.o., 10 mg/kg",69%
same,"Inhibitory effect of tumor, efficiency","[2]; p.o., 50 mg/kg",83%
"CN(N=O)C(=O)N[C@H]1C(O)O[C@H](CO)[C@@H](O)[C@@H]1O (stereo partly drawn) [Test No. 5 (Table 18), 2-(N'--methyl-N'--nitrosoureido)-2-deoxy-D-glucopyranoside, reference compound]",LD50 at 168 h,[1]; ip,264 mg/kg
same,LD50 at 168 h,[1]; po,> 1000 mg/kg
same,"Inhibitory effect of tumor, efficiency","[2]; i.p., 10 mg/kg",20%
same,"Inhibitory effect of tumor, efficiency","[2]; i.p., 50 mg/kg",63%
same,"Inhibitory effect of tumor, efficiency","[2]; p.o., 10 mg/kg",69%
same,"Inhibitory effect of tumor, efficiency","[2]; p.o., 40 mg/kg",86%
"CCC(=O)Oc1ccc2c(c1)CC[C@@H]1[C@@H]2CC[C@]2(C)[C@@H](OC(=O)Cn3cc(F)c(=O)[nH]c3=O)CC[C@@H]12 [Test No. 10 (Table 18), 3-propionyloxy-1,3,5(10)-estratriene-17β-[5-fluoro-2,4-dioxo-pyrimidin-1-yl]acetate]",LD50 at 168 h,[1]; ip,740 mg/kg
same,LD50 at 168 h,[1]; po,> 3000 mg/kg
same,"Inhibitory effect of tumor, efficiency","[2]; i.p., 15 mg/kg",81%
same,"Inhibitory effect of tumor, efficiency","[2]; i.p., 30 mg/kg",91%
same,"Inhibitory effect of tumor, efficiency","[2]; p.o., 15 mg/kg",72%
same,"Inhibitory effect of tumor, efficiency","[2]; p.o., 30 mg/kg",83%
"COc1cccc2c1C(=O)c1c(O)c3c(c(O)c1C2=O)C[C@@](O)(C(=O)CO)C[C@@H]3O[C@H]1C[C@H](NCC(=O)O[C@H]2CC[C@H]3[C@@H]4CCc5cc(O)ccc5[C@H]4CC[C@]23C)[C@H](O)[C@H](C)O1 [Test No. 14 (Table 18), 3-glycoloyl-1,2,3,4,6,11-hexahydro-3,5,12-trihydroxy-10-methoxy-6,11-dioxo-1-naphthacenyl-3'-[3-hydroxy-1,3,5(10)-estratriene-17β-oxycarbonylmethyl]amino-2',3',6'-trideoxy-α-L-lyxo-hexapyranoside]",LD50 at 168 h,[1]; po,> 3000 mg/kg
same,"Inhibitory effect of tumor, efficiency","[2]; p.o., 10 mg/kg",63%
same,"Inhibitory effect of tumor, efficiency","[2]; p.o., 50 mg/kg",71%
COc1cccc2c1C(=O)c1c(O)c3c(c(O)c1C2=O)C[C@@](O)(C(C)=O)C[C@@H]3O[C@H]1C[C@H](N)[C@H](O)[C@H](C)O1 [compound 18],LD50 at 168 h,[1]; ip,5 mg/kg
same,LD50 at 168 h,[1]; po,20 mg/kg
same,"Inhibitory effect of tumor, efficiency","[2]; i.p., 0.5 mg/kg",47%
same,"Inhibitory effect of tumor, efficiency","[2]; i.p., 1 mg/kg",78%
same,"Inhibitory effect of tumor, efficiency","[2]; p.o., 1 mg/kg",59%
"CC(=O)Oc1ccc2c(c1)CC[C@@H]1[C@@H]2CC[C@]2(C)[C@@H](OC(=O)Cn3cc(F)c(=O)[nH]c3=O)CC[C@@H]12 [Test No. 9 (Table 18), 3-acetoxy-1,3,5(10)-estratriene-17β-[5-fluoro-2,4-dioxo-pyrimidin-1-yl]acetate]",LD50 at 168 h,[1]; ip,800 mg/kg
same,LD50 at 168 h,[1]; po,> 3000 mg/kg
same,"Inhibitory effect of tumor, efficiency","[2]; i.p., 15 mg/kg",84%
same,"Inhibitory effect of tumor, efficiency","[2]; i.p., 30 mg/kg",93%
same,"Inhibitory effect of tumor, efficiency","[2]; p.o., 15 mg/kg",72%
same,"Inhibitory effect of tumor, efficiency","[2]; p.o., 30 mg/kg",87%
"COc1cccc2c1C(=O)c1c(O)c3c(c(O)c1C2=O)C[C@@](O)(C(=O)CO)C[C@@H]3O[C@H]1C[C@H](NCC(=O)O[C@H]2CC[C@H]3[C@@H]4CCc5cc(OC(C)=O)ccc5[C@H]4CC[C@]23C)[C@H](O)[C@H](C)O1 [Test No. 15 (Table 18), 3-glycoloyl-1,2,3,4,6,11-hexahydro-3,5,12-trihydroxy-10-methoxy-6,11-dioxo-1-naphthacenyl-3'-[3-acetoxy-1,3,5(10)-estratriene-17β-oxycarbonylmethyl]amino-2',3',6'-trideoxy-α-L-lyxo-hexapyranoside]",LD50 at 168 h,[1]; po,> 3000 mg/kg
same,"Inhibitory effect of tumor, efficiency","[2]; p.o., 10 mg/kg",53%
same,"Inhibitory effect of tumor, efficiency","[2]; p.o., 50 mg/kg",79%
"CN(Cc1cnc2nc(N)nc(N)c2n1)c1ccc(C(=O)N[C@@H](CCC(=O)O)C(=O)O)cc1 [Test No. 12 (Table 18), 4-amino-N^10 --methylpteroyl glutamate, reference compound]",LD50 at 168 h,[1]; ip,94 mg/kg
same,LD50 at 168 h,[1]; po,230 mg/kg
same,"Inhibitory effect of tumor, efficiency","[2]; i.p., 5 mg/kg",48%
same,"Inhibitory effect of tumor, efficiency","[2]; i.p., 20 mg/kg",65%
same,"Inhibitory effect of tumor, efficiency","[2]; p.o., 10 mg/kg",31%
same,"Inhibitory effect of tumor, efficiency","[2]; p.o., 50 mg/kg",42%
COc1cccc2c1C(=O)c1c(O)c3c(c(O)c1C2=O)C[C@@](O)(C(=O)CO)C[C@@H]3O[C@H]1C[C@H](NCC(=O)O[C@H]2CC[C@H]3[C@@H]4CCc5cc(OC(=O)c6ccccc6)ccc5[C@H]4CC[C@]23C)[C@H](O)[C@H](C)O1 [compound 17],LD50 at 168 h,[1]; po,> 3000 mg/kg
same,"Inhibitory effect of tumor, efficiency","[2]; p.o., 10 mg/kg",70%
same,"Inhibitory effect of tumor, efficiency","[2]; p.o., 50 mg/kg",79%
COc1cccc2c1C(=O)c1c(O)c3c(c(O)c1C2=O)C[C@@](O)(C(C)=O)C[C@@H]3O[C@H]1C[C@H](NCC(=O)O[C@H]2CC[C@H]3[C@@H]4CCc5cc(O)ccc5[C@H]4CC[C@]23C)[C@H](O)[C@H](C)O1 [compound 19],LD50 at 168 h,[1]; ip,> 15 mg/kg
same,LD50 at 168 h,[1]; po,> 2000 mg/kg
same,"Inhibitory effect of tumor, efficiency","[2]; i.p., 0.1 mg/kg",90%
same,"Inhibitory effect of tumor, efficiency","[2]; i.p., 0.5 mg/kg",99%
same,"Inhibitory effect of tumor, efficiency","[2]; p.o., 1 mg/kg",72%
same,"Inhibitory effect of tumor, efficiency","[2]; p.o., 5 mg/kg",85%
"C[C@]12CC[C@@H]3c4ccc(O)cc4CC[C@H]3[C@@H]1CC[C@@H]2OC(=O)COC(=O)[C@H]1OC(O)[C@H](NC(=O)N(CCCl)N=O)[C@@H](O)[C@@H]1O (stereo partly drawn) [Test No. 2 (Table 18), 3-hydroxy-1,3,5(10)-estratriene-17β-[2-{N'-(2-chloroethyl)-N'-nitrosoureido}-2-deoxy-D-glucuronoyloxy]acetate]",LD50 at 168 h,[1]; ip,> 180 mg/kg
same,LD50 at 168 h,[1]; po,> 1000 mg/kg
same,"Inhibitory effect of tumor, efficiency","[2]; i.p., 1 mg/kg",90%
same,"Inhibitory effect of tumor, efficiency","[2]; i.p., 3 mg/kg",92%
same,"Inhibitory effect of tumor, efficiency","[2]; p.o., 10 mg/kg",73%
same,"Inhibitory effect of tumor, efficiency","[2]; p.o., 40 mg/kg",89%
